Experimental data: US20230150979A1, “AMIDE-DISUBSTITUTED PYRIDINE OR PYRIDAZINE COMPOUNDS” (BRISTOL-MYERS SQUIBB COMPANY, priority 2019, published 2023)

System: IFNα-induced STAT phosphorylation (pSTAT5) in human whole blood, CD3 positive population
Assay: IFNα-Induced STAT Phosphorylation in Human Whole Blood
Type: cell-based
Settings: 1 h incubation with compound, 1000 U/mL recombinant human IFNα A/D for 15 min, pSTAT5 (pY694) median fluorescence in CD3 positive cells, read-out: Human WB IFNα-Induced Stat Phosph. (IC50)
Method: IFNα-Induced STAT Phosphorylation in Human Whole Blood
After an hour long incubation with compound, human whole blood (drawn with either EDTA or ACD-A as anti-coagulant) was stimulated with 1000 U/mL recombinant human IFNα A/D (R&D Systems 11200-2) for 15 min. The stimulation was stopped by adding Fix/Lyse buffer (BD 558049). Cells were stained with a CD3 FITC antibody (BD 555916), washed, and permeabilized on ice using Perm III buffer (BD 558050). Cells were then stained with an Alexa-Fluor 647 pSTAT5 (pY694) antibody (BD 612599) for 30 min prior to analysis on the FACS Canto II. The amount of pSTAT5 expression was quantitated by median fluorescence intensity after gating on the CD3 positive population.

| Structure (SMILES) | IC50 [nM] |
| --- | --- |
| [2H]C([2H])([2H])NC(=O)c1nnc(NC(=O)OC)cc1Nc1cccc(-c2noc(C)n2)c1OC [Example 63] | 970 |
| COC(=O)Nc1cc(Nc2cccc(-c3noc(CN4CCN(S(C)(=O)=O)CC4)n3)c2OC)c(C(N)=O)nn1 [Example 64] | 100 |
| [2H]C([2H])([2H])NC(=O)c1nnc(NC(=O)OC)cc1Nc1cccc(-c2noc(CN3CCN(C(=O)OC)CC3)n2)c1OC [Example 65] | 330 |
| [2H]C([2H])([2H])NC(=O)c1nnc(NC(=O)OC)cc1Nc1cccc(-c2noc(CN3CCN(S(C)(=O)=O)CC3)n2)c1OC [Example 66] | 130 |
| COC(=O)Nc1cc(Nc2cccc(-c3noc(C)n3)c2OC)c(C(N)=O)nn1 [Example 67] | 270 |
| [2H]C([2H])([2H])NC(=O)c1nnc(NC(=O)OC)cc1Nc1cccc(-c2noc(CN3CCCS3(=O)=O)n2)c1OC [Example 68] | 200 |
| [2H]C([2H])([2H])NC(=O)c1nnc(NC(=O)OC)cc1Nc1cccc(-c2noc(CCS(C)(=O)=O)n2)c1OC [Example 69] | 1030 |
| [2H]C([2H])([2H])NC(=O)c1nnc(NC(=O)OC)cc1Nc1cccc(-c2noc(CN3CCOC3=O)n2)c1OC [Example 70] | 1150 |
| [2H]C([2H])([2H])NC(=O)c1cnc(NC(=O)OC)cc1Nc1cccc(-c2noc(CN3CCOCC3)n2)c1OC [Example 71] | 300 |
| [2H]C([2H])([2H])NC(=O)c1cnc(NC(=O)NCC)cc1Nc1cccc(-c2noc(C)n2)c1OC [Example 72] | 140 |
| [2H]C([2H])([2H])NC(=O)c1cnc(NC(=O)OC)cc1Nc1cccc(-c2noc(C)n2)c1OC [Example 73] | 770 |
| [2H]C([2H])([2H])NC(=O)c1cnc(NC(=O)NC)cc1Nc1cccc(-c2noc(C)n2)c1OC [Example 74] | 210 |
| [2H]C([2H])([2H])NC(=O)c1nnc(NC(=O)NCCN(C)C)cc1Nc1cccc(-c2ncn(C)n2)c1OC [Example 75] | 470 |
| [2H]C([2H])([2H])NC(=O)c1cnc(NC(=O)NCCOC)cc1Nc1cccc(-c2noc(C)n2)c1OC [Example 76] | 160 |
| [2H]C([2H])([2H])NC(=O)c1nnc(NC(=O)NC2CC2)cc1Nc1cccc(-c2noc(C)n2)c1OC [Example 77] | 210 |
